What all share (test): relative viability (nuclei count vs DMSO), 5 days (fraction); higher = more cells survive
Compound in test [1]: C[C@H]([C@@H](C(=O)N)NC(=O)[C@@H]1CSSC[C@@H](C(=O)N[C@H](C(=O)N[C@@H](C(=O)N[C@H](C(=O)N1)CCCCN)CC2=CNC3=CC=CC=C32)CC4=CC=C(C=C4)O)NC(=O)[C@@H](CC5=CC=CC=C5)N)O [CAP-232] + CC(C)C[C@H](NC(=O)[C@H](Cc1ccccc1)NC(=O)c1cnccn1)B(O)O [Bortezomib] (partner 0.002 µM)
The method, boiled down: (§1)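 Cells from lung cancer lines were seeded into 1536-well plates and, one day later, dosed by pin tool. Treatments were either a single drug or a fixed dose of an anchor drug with five library-drug doses (not always all listed) in √10 steps. After 5 days, nuclei were stained in a one-step fixation (final 0.05% Triton X-100, 1% formaldehyde, 1 ug/ml Hoechst) and counted on 4× images, and relative viability is the treated-to-vehicle nuclei ratio, as the median of duplicate plates.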

Compound in test [2]: C[C@H]([C@@H](C(=O)N)NC(=O)[C@@H]1CSSC[C@@H](C(=O)N[C@H](C(=O)N[C@@H](C(=O)N[C@H](C(=O)N1)CCCCN)CC2=CNC3=CC=CC=C32)CC4=CC=C(C=C4)O)NC(=O)[C@@H](CC5=CC=CC=C5)N)O [CAP-232] + COc1cccc2cc(-c3nc([C@H]4CC[C@H](C(=O)O)CC4)n4ncnc(N)c34)[nH]c12 [OSI-027] (partner 0.5 µM)
A digest of the protocol: as §1

Compound in test [3]: C[C@H]([C@@H](C(=O)N)NC(=O)[C@@H]1CSSC[C@@H](C(=O)N[C@H](C(=O)N[C@@H](C(=O)N[C@H](C(=O)N1)CCCCN)CC2=CNC3=CC=CC=C32)CC4=CC=C(C=C4)O)NC(=O)[C@@H](CC5=CC=CC=C5)N)O [CAP-232] + C[C@@H](Oc1cc(-c2cnn(C3CCNCC3)c2)cnc1N)c1c(Cl)ccc(F)c1Cl [Crizotinib] (partner 1 µM)
The method, boiled down:
as §1

Compound in test [4]: C[C@H]([C@@H](C(=O)N)NC(=O)[C@@H]1CSSC[C@@H](C(=O)N[C@H](C(=O)N[C@@H](C(=O)N[C@H](C(=O)N1)CCCCN)CC2=CNC3=CC=CC=C32)CC4=CC=C(C=C4)O)NC(=O)[C@@H](CC5=CC=CC=C5)N)O [CAP-232] + Nc1nc2[nH]cc(CCc3ccc(C(=O)N[C@@H](CCC(=O)O)C(=O)O)cc3)c2c(=O)[nH]1 [Pemetrexed] (partner 0.2 µM)
A digest of the protocol: as §1

Compound in test [5]: C[C@H]([C@@H](C(=O)N)NC(=O)[C@@H]1CSSC[C@@H](C(=O)N[C@H](C(=O)N[C@@H](C(=O)N[C@H](C(=O)N1)CCCCN)CC2=CNC3=CC=CC=C32)CC4=CC=C(C=C4)O)NC(=O)[C@@H](CC5=CC=CC=C5)N)O [CAP-232] + Nc1ncn([C@H]2C[C@H](O)[C@@H](CO)O2)c(=O)n1 [Decitabine] (partner 2 µM)
The method, boiled down:
as §1

Consider NCI-H2009, for which the relative viability in test [1] (first compound 0.4 µM) amounted to 1.09; in test [1] (first compound 1.265 µM) it was 0.974; in test [1] (first compound 4 µM) it was 0.97; in test [1] (first compound 12.65 µM), 0.843; in test [2] (first compound 0.4 µM) it was 0.667; in test [2] (first compound 1.265 µM), 0.585. Also, the relative viability is 0.719 in test [2] (first compound 4 µM); 0.358 in test [2] (first compound 12.65 µM); 1.11 in test [3] (first compound 0.4 µM); 1.01 in test [3] (first compound 1.265 µM); 1.05 in test [3] (first compound 4 µM); 1.09 in test [3] (first compound 12.65 µM). In addition, the relative viability was 1.07 in test [4] (first compound 0.4 µM); 1.06 in test [4] (first compound 1.265 µM); 1.11 in test [4] (first compound 4 µM); 1 in test [4] (first compound 12.65 µM); 0.397 in test [5] (first compound 0.4 µM); 0.391 in test [5] (first compound 1.265 µM). In addition, the relative viability in test [5] (first compound 4 µM) stood at 0.341; in test [5] (first compound 12.65 µM), 0.33.

For NCI-H2023, the relative viability in test [1] (first compound 0.4 µM) stood at 1.02; in test [1] (first compound 1.265 µM), 1.03; in test [1] (first compound 4 µM) it was 1.07; in test [1] (first compound 12.65 µM), 0.237; in test [2] (first compound 0.4 µM) it was 0.429; in test [2] (first compound 1.265 µM) it was 0.359. Moreover, the relative viability is 0.447 in test [2] (first compound 4 µM); 0.124 in test [2] (first compound 12.65 µM); 0.837 in test [3] (first compound 0.4 µM); 0.548 in test [3] (first compound 1.265 µM); 0.693 in test [3] (first compound 4 µM); 0.292 in test [3] (first compound 12.65 µM). Besides, the relative viability in test [4] (first compound 0.4 µM) was found to be 0.246; in test [4] (first compound 1.265 µM), 0.257; in test [4] (first compound 4 µM) it was 0.178; in test [4] (first compound 12.65 µM), 0.0965; in test [5] (first compound 0.4 µM) it was 0.242; in test [5] (first compound 1.265 µM), 0.2. In addition, the relative viability in test [5] (first compound 4 µM) stood at 0.239; in test [5] (first compound 12.65 µM), 0.153.

As to NCI-H2085, the relative viability turned out to be 1.2 in test [1] (first compound 0.4 µM); 0.974 in test [1] (first compound 1.265 µM); 1 in test [1] (first compound 4 µM); 0.791 in test [1] (first compound 12.65 µM); 0.786 in test [2] (first compound 0.4 µM); 0.726 in test [2] (first compound 1.265 µM). In addition, the relative viability stood at 0.934 in test [2] (first compound 4 µM); 0.594 in test [2] (first compound 12.65 µM); 0.728 in test [3] (first compound 0.4 µM); 0.882 in test [3] (first compound 1.265 µM); 0.821 in test [3] (first compound 4 µM); 0.853 in test [3] (first compound 12.65 µM). The relative viability in test [4] (first compound 0.4 µM) worked out at 0.941; in test [4] (first compound 1.265 µM), 0.796; in test [4] (first compound 4 µM), 0.899; in test [4] (first compound 12.65 µM), 0.918; in test [5] (first compound 0.4 µM), 0.56; in test [5] (first compound 1.265 µM), 0.542. The relative viability stood at 0.511 in test [5] (first compound 4 µM) and 0.545 in test [5] (first compound 12.65 µM).

With NCI-H2087, the relative viability in test [1] (first compound 0.4 µM) came out at 1.01; in test [1] (first compound 1.265 µM), 0.746; in test [1] (first compound 4 µM) it was 1.14; in test [1] (first compound 12.65 µM), 0.462; in test [2] (first compound 0.4 µM), 0.444; in test [2] (first compound 1.265 µM) it was 0.489. In addition, the relative viability amounted to 0.596 in test [2] (first compound 4 µM); 0.41 in test [2] (first compound 12.65 µM); 0.929 in test [3] (first compound 0.4 µM); 0.809 in test [3] (first compound 1.265 µM); 0.967 in test [3] (first compound 4 µM); 0.819 in test [3] (first compound 12.65 µM). The relative viability in test [4] (first compound 0.4 µM) came out at 0.662; in test [4] (first compound 1.265 µM) it was 0.655; in test [4] (first compound 4 µM), 0.68; in test [4] (first compound 12.65 µM), 0.604; in test [5] (first compound 0.4 µM) it was 0.265; in test [5] (first compound 1.265 µM), 0.261. The relative viability was 0.276 in test [5] (first compound 4 µM) and 0.238 in test [5] (first compound 12.65 µM).

NCI-H2126: the relative viability was 1.22 in test [1] (first compound 0.4 µM); 1.08 in test [1] (first compound 1.265 µM); 1.19 in test [1] (first compound 4 µM); 1.13 in test [1] (first compound 12.65 µM); 0.743 in test [2] (first compound 0.4 µM); 0.76 in test [2] (first compound 1.265 µM). For the same cell line, the relative viability was determined as 0.846 in test [2] (first compound 4 µM); 0.648 in test [2] (first compound 12.65 µM); 1.06 in test [3] (first compound 0.4 µM); 1.03 in test [3] (first compound 1.265 µM); 1.13 in test [3] (first compound 4 µM); 1.09 in test [3] (first compound 12.65 µM). Further, the relative viability in test [4] (first compound 0.4 µM) turned out to be 0.703; in test [4] (first compound 1.265 µM), 0.696; in test [4] (first compound 4 µM), 0.706; in test [4] (first compound 12.65 µM), 0.654; in test [5] (first compound 0.4 µM) it was 0.488; in test [5] (first compound 1.265 µM) it was 0.612. Also, the relative viability in test [5] (first compound 4 µM) was 0.618; in test [5] (first compound 12.65 µM), 0.614.

As for NCI-H2347, the relative viability in test [1] (first compound 0.4 µM) was 1.14; in test [1] (first compound 1.265 µM) it was 1.19; in test [1] (first compound 4 µM), 1.2; in test [1] (first compound 12.65 µM) it was 0.846; in test [2] (first compound 0.4 µM) it was 0.29; in test [2] (first compound 1.265 µM) it was 0.489. For the same cell line, the relative viability in test [2] (first compound 4 µM) was 0.352; in test [2] (first compound 12.65 µM), 0.614; in test [3] (first compound 0.4 µM), 0.794; in test [3] (first compound 1.265 µM), 0.753; in test [3] (first compound 4 µM), 0.0086; in test [3] (first compound 12.65 µM), 0.544. Also, the relative viability came out at 0.432 in test [4] (first compound 0.4 µM); 0.436 in test [4] (first compound 1.265 µM); 0.457 in test [4] (first compound 4 µM); 0.418 in test [4] (first compound 12.65 µM); 0.648 in test [5] (first compound 0.4 µM); 0.589 in test [5] (first compound 1.265 µM). For the same cell line, the relative viability in test [5] (first compound 4 µM) was found to be 0.555; in test [5] (first compound 12.65 µM) it was 0.544.

NCI-H2405: the relative viability in test [1] (first compound 0.4 µM) amounted to 1; in test [1] (first compound 1.265 µM), 0.867; in test [1] (first compound 4 µM), 1.07; in test [1] (first compound 12.65 µM), 0.9; in test [2] (first compound 0.4 µM) it was 0.626; in test [2] (first compound 1.265 µM) it was 0.648. Moreover, the relative viability in test [2] (first compound 4 µM) amounted to 0.693; in test [2] (first compound 12.65 µM), 0.518; in test [3] (first compound 0.4 µM), 0.76; in test [3] (first compound 1.265 µM), 0.848; in test [3] (first compound 4 µM) it was 0.876; in test [3] (first compound 12.65 µM) it was 0.843. The relative viability was 1.11 in test [4] (first compound 0.4 µM); 1.1 in test [4] (first compound 1.265 µM); 0.986 in test [4] (first compound 4 µM); 0.512 in test [4] (first compound 12.65 µM); 0.715 in test [5] (first compound 0.4 µM); 0.752 in test [5] (first compound 1.265 µM). Also, the relative viability amounted to 0.796 in test [5] (first compound 4 µM) and 0.578 in test [5] (first compound 12.65 µM).

The values are drawn from the supplement of paper PMC10307832.
